# Source: patent publication US10463690B2, “Method and compositions for treating cancerous tumors” (priority 2016, dated 2019)
# Columns and labels:
# [1] = placed on rats in a 60% of the body 3rd degree burn; cited from earlier work
# tumor = details: animal experiments; cited from earlier work
# [2] = type: in vivo, Mice (SK1IPYMT 4913×SK1FVB)
# Text: The purpose was to see how and where the test product spread throughout the body. Mice were euthanized so that internal cavity could be examined. Organs were cut in half for inspection of the extent of saturation.
smiles,measurement,setting,value
"[O][Cl+][O-] [ClO2, Chlorine dioxide]",toxicity,[1],no toxicity was indicated
"NCCCC(N)(C(=O)O)C(F)F (stereo not shown) [DFMO, difuoromethylornithine]",effect on tumor growth,tumor,reduced tumor growth
"CN(C)c1ccc2nc3ccc(=[N+](C)C)cc-3sc2c1 [methylene blue, Methylene blue]",distribution of dye after injection into kidney,[2]; kidney injection,The entire kidney got saturated and the dye got into the urine but did not spread throughout the body
same,distribution of dye after injection into liver,[2]; liver injection,The dye did not spread past the injection site in the liver
